A short description of data set [1]: in vitro. The conditions noted are these: Chlorocebus aethiops (African green monkey).
In data set [2] the test system is SARS-CoV-2 (hCoV-19/Egypt/NRC-03/2020). Further details: method as in PMID 34775204. The conditions noted are these: standard reference, cited from earlier work.
Data set [3] concerns VERO-E6 cells. Further details: method as in PMID 34775204. As to conditions: standard reference; cited from earlier work.
Data set [4] concerns SARS-CoV-2 (hCoV-19/Egypt/NRC-03/2020). Kind of data set: Anti-SARS-CoV-2 IC50 determination in Vero-E6 cells (inhibition of virus-induced cytopathic effect, crystal violet). The data set is classed as cell-based. As to conditions: for IC50: Severe acute respiratory syndrome coronavirus 2, Vero C1008, SARS-CoV-2 in Vero-E6 cells, 72 h, CPE reduction; for SI: selectivity index, ratio of CC50 relative to IC50. A general note: Cytopathic effects are the visible damage that an infection or toxin causes in cultured cells.

One may read the melting point as the temperature, or range, at which the solid turns liquid. As a reminder, the IC50 is the concentration that inhibits the measured activity by half.

Several values for one entry are separate records, joined by “and”; a condition that tells them apart may be missing. Identical values can stand only once. Like-named read-outs stand apart in the source and are kept apart here.

`Cc1ccc2nc(C(F)(F)F)cc(OCCCCn3cc(C=C4SC(=S)N(CCc5ccccc5)C4=O)c4ccccc43)c2c1` (mixture of isomers) [9g, (E/Z)-5-((1-(4-((6-Methyl-2-(trifluoromethyl)quinolin-4-yl)oxy)butyl)-1H-indol-3-yl)methylene)-3-phenethyl-2-thioxothiazolidin-4-one] showed a melting point of 175 to 177 °C. Also, the CC50 at 24 h in data set [1] worked out at 591 µg/mL.
The like results for `O=C1C(=Cc2cn(CCCOc3cc(C(F)(F)F)nc4ccc(Cl)cc34)c3ccccc23)SC(=S)N1CCc1ccccc1` (mixture of isomers) [9b, (E/Z)-5-((1-(3-((6-Chloro-2-(trifluoromethyl)quinolin-4-yl)oxy)propyl)-1H-indol-3-yl)methylene)-3-phenethyl-2-thioxothiazolidin-4-one] were, in that order, 176 to 179 °C and 227 µg/mL.
For the molecule `CCN(CCO)CCCC(C)Nc1ccnc2cc(Cl)ccc12` (stereo not shown) [Hydroxychloroquine], the IC50 in data set [2] (anti-SARS-CoV-2) is 29.2 µM. Moreover, the SI in data set [2] (ratio of CC50 relative to IC50) was 12.2. The CC50 in data set [3] is 356 µM.
On to `Cc1ccc2nc(C(F)(F)F)cc(OCCCCCCn3cc(C=C4SC(=S)N(CCc5ccccc5)C4=O)c4ccccc43)c2c1` (mixture of isomers) [9k, (E/Z)-5-((1-(6-((6-Methyl-2-(trifluoromethyl)quinolin-4-yl)oxy)hexyl)-1H-indol-3-yl)methylene)-3-phenethyl-2-thioxothiazolidin-4-one], for which the melting point was 148 to 150 °C. Besides, in data set [4], the IC50 was 160 µg/mL and 238 µM; the SI turned out to be 1.3. Besides, the CC50 at 24 h in data set [1] is 201 µg/mL and 299 µM.
Molecule `O=C1C(=Cc2cn(CCCCCCOc3cc(C(F)(F)F)nc4ccc(Cl)cc34)c3ccccc23)SC(=S)N1CCc1ccccc1` (mixture of isomers) [9j, (E/Z)-5-((1-(6-((6-Chloro-2-(trifluoromethyl)quinolin-4-yl)oxy)hexyl)-1H-indol-3-yl)methylene)-3-phenethyl-2-thioxothiazolidin-4-one] gave a melting point of 184 to 186 °C. The molecule further showed a CC50 at 24 h in data set [1] of 380 µg/mL.
For `O=C1C(=Cc2cn(CCCOc3cc(C(F)(F)F)nc4ccccc34)c3ccccc23)SC(=S)N1CCc1ccccc1` (mixture of isomers) [9a, (E/Z)-3-Phenethyl-2-thioxo-5-((1-(3-((2-(trifluoromethyl)quinolin-4-yl)oxy)propyl)-1H-indol-3-yl)methylene)thiazolidin-4-one], the melting point lay within 185 to 187 °C. Also, the CC50 at 24 h in data set [1] worked out at 210 µg/mL.
The like results for `O=C1C(=Cc2cn(CCCCCCOc3cc(C(F)(F)F)nc4ccc(F)cc34)c3ccccc23)SC(=S)N1CCc1ccccc1` (mixture of isomers) [9i, (E/Z)-5-((1-(6-((6-Fluoro-2-(trifluoromethyl)quinolin-4-yl)oxy)hexyl)-1H-indol-3-yl)methylene)-3-phenethyl-2-thioxothiazolidin-4-one] were, in that order, 185 to 187 °C and 262 µg/mL.
The like results for `Cc1ccc2nc(C(F)(F)F)cc(OC/C=C/Cn3cc(C=C4SC(=S)N(CCc5ccccc5)C4=O)c4ccccc43)c2c1` (mixture of isomers) [10b, (E/Z)-5-((1-((E)-4-((6-Methyl-2-(trifluoromethyl)quinolin-4-yl)oxy)but-2-en-1-yl)-1H-indol-3-yl)methylene)-3-phenethyl-2-thioxothiazolidin-4-one] were, in that order, 168 to 170 °C and 290 µg/mL.
In turn, `Cc1ccc2nc(C(F)(F)F)cc(OCCCn3cc(C=C4SC(=S)N(CCc5ccccc5)C4=O)c4ccccc43)c2c1` (mixture of isomers) [9c, (E/Z)-5-((1-(3-((6-Methyl-2-(trifluoromethyl)quinolin-4-yl)oxy)propyl)-1H-indol-3-yl)methylene)-3-phenethyl-2-thioxothiazolidin-4-one] gave a melting point of 182 to 184 °C. For the same molecule, the CC50 at 24 h in data set [1] was 310 µg/mL.
The like results for `O=C1C(=Cc2cn(CCCCCCOc3cc(C(F)(F)F)nc4ccccc34)c3ccccc23)SC(=S)N1CCc1ccccc1` (mixture of isomers) [9h, (E/Z)-3-Phenethyl-2-thioxo-5-((1-(6-((2-(trifluoromethyl)quinolin-4-yl)oxy)hexyl)-1H-indol-3-yl)methylene)thiazolidin-4-one] were, in that order, 180 to 182 °C and 258 µg/mL.
`O=C1C(=Cc2cn(CCCCOc3cc(C(F)(F)F)nc4ccc(F)cc34)c3ccccc23)SC(=S)N1CCc1ccccc1` (mixture of isomers) [9e, (E/Z)-5-((1-(4-((6-Fluoro-2-(trifluoromethyl)quinolin-4-yl)oxy)butyl)-1H-indol-3-yl)methylene)-3-phenethyl-2-thioxothiazolidin-4-one]: the melting point is 160 to 162 °C. In data set [4], the IC50 is 276 µg/mL and 424 µM; the SI was 1.1. Moreover, the CC50 at 24 h in data set [1] is 305 µg/mL and 469 µM.
Regarding `O=C1C(=Cc2cn(CCCCOc3cc(C(F)(F)F)nc4ccccc34)c3ccccc23)SC(=S)N1CCc1ccccc1` (mixture of isomers) [9d, (E/Z)-3-Phenethyl-2-thioxo-5-((1-(4-((2-(trifluoromethyl)quinolin-4-yl)oxy)butyl)-1H-indol-3-yl)methylene)thiazolidin-4-one], the melting point fell in the range of 157 to 159 °C. In data set [4], the half-maximal inhibitory concentration (IC50) is 257 µg/mL and 407 µM; the SI is 1.1. The CC50 at 24 h in data set [1] is 294 µg/mL and 465 µM.
`O=C1C(=Cc2cn(CCCCOc3cc(C(F)(F)F)nc4ccc(Cl)cc34)c3ccccc23)SC(=S)N1CCc1ccccc1` (mixture of isomers) [9f, (E/Z)-5-((1-(4-((6-Chloro-2-(trifluoromethyl)quinolin-4-yl)oxy)butyl)-1H-indol-3-yl)methylene)-3-phenethyl-2-thioxothiazolidin-4-one] returned a melting point of 181 to 183 °C. Besides, in data set [4], the IC50 is 109 µg/mL and 164 µM; the SI is 3.4. The CC50 at 24 h in data set [1] is 370 µg/mL and 555 µM.
On to `O=C1C(=Cc2cn(C/C=C/COc3cc(C(F)(F)F)nc4ccccc34)c3ccccc23)SC(=S)N1CCc1ccccc1` (mixture of isomers) [10a, (E/Z)-3-Phenethyl-2-thioxo-5-((1-((E)-4-((2-(trifluoromethyl)quinolin-4-yl)oxy)but-2-en-1-yl)-1H-indol-3-yl)methylene)thiazolidin-4-one], for which the melting point lay in the range of 179 to 181 °C. The same molecule displayed a CC50 at 24 h in data set [1] of 370 µg/mL.

Values taken from publication PMC9501548, “Synthesis of Potential Antiviral Agents for SARS-CoV-2 Using Molecular Hybridization Approach” (Molecules, 2022).
